Experimental data reported in ChEMBL document CHEMBL1132591, “Synthesis of retinoid X receptor-specific ligands that are potent inducers of adipogenesis in 3T3-L1 cells” (J Med Chem, 1999).

Experiments:
[1] = target: T1, Retinoic acid receptor RXR-beta (Homo sapiens, UniProt P28702); assay: Transcriptional activity was evaluated in CV-1 cells transfected with expression vector for Retinoic acid receptor RXR-beta; type: functional, cell-based
T1 sequence (P28702 whole entry): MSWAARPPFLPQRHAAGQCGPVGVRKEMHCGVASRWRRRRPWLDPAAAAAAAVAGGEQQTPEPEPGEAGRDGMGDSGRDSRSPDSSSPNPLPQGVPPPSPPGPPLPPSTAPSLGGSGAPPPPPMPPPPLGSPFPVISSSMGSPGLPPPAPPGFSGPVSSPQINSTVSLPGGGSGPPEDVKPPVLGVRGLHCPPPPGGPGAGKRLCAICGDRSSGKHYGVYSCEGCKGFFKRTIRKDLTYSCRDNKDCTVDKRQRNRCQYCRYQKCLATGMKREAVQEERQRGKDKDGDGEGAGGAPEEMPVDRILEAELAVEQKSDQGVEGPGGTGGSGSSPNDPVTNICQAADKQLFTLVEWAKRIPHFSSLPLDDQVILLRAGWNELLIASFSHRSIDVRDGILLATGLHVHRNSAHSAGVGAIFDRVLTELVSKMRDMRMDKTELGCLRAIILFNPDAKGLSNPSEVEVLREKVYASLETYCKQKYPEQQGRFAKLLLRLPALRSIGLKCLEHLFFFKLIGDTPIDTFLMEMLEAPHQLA

[2] = target: T2, Retinoic acid receptor RXR-gamma (Homo sapiens, UniProt P48443); assay: Transcriptional activity was evaluated in CV-1 cells transfected with expression vector for Retinoic acid receptor RXR-gamma; type: functional, cell-based
T2 sequence (P48443 whole entry): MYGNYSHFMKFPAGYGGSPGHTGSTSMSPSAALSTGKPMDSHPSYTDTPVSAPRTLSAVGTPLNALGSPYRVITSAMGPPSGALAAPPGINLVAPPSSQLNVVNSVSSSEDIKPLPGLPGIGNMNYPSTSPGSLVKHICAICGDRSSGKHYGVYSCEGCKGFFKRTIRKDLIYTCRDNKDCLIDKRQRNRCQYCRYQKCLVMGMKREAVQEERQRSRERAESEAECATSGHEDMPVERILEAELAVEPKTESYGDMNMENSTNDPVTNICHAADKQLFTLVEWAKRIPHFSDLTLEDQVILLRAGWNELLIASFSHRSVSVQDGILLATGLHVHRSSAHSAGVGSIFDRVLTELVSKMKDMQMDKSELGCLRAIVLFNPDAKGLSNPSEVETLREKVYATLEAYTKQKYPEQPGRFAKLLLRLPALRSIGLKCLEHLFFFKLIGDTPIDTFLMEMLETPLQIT

[3] = target: T2, Retinoic acid receptor RXR-gamma; assay: Binding affinity towards recombinantly expressed Retinoic acid receptor RXR-gamma in baculoviral system, by using 5 nM [3H]targretin in a competitive binding assay
[4] = target: T3, Retinoic acid receptor RXR-alpha (Homo sapiens, UniProt P19793); assay: Transcriptional activity was evaluated in CV-1 cells transfected with expression vector for Retinoic acid receptor RXR-alpha; type: functional, cell-based
T3 sequence (P19793 whole entry): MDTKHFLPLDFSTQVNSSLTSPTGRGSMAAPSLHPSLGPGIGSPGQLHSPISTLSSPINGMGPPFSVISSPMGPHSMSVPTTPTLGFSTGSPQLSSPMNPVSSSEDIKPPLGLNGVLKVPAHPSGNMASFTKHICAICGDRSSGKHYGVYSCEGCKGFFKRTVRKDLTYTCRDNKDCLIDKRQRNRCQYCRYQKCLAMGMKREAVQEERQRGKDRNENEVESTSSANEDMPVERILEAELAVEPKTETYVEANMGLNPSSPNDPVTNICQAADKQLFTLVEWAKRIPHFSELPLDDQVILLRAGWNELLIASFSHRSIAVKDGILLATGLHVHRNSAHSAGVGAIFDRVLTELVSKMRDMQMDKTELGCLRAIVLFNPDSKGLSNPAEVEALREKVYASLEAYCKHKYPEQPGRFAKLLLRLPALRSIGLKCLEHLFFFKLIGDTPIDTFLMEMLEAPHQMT

[5] = target: T3, Retinoic acid receptor RXR-alpha; assay: Binding affinity towards recombinantly expressed Retinoic acid receptor RXR-alpha in baculoviral system, by using 5 nM [3H]targretin in a competitive binding assay
[6] = target: T1, Retinoic acid receptor RXR-beta; assay: Binding affinity towards recombinantly expressed Retinoic acid receptor RXR-beta in baculoviral system, by using 5 nM [3H]targretin in a competitive binding assay
[7] = target: T4, Retinoic acid receptor beta (Homo sapiens) (UniProt P10826); assay: Percent transcriptional activation relative to ATRA in CV-1 cells expressing Retinoic acid receptor RAR beta; type: functional, cell-based
T4 sequence (whole entry): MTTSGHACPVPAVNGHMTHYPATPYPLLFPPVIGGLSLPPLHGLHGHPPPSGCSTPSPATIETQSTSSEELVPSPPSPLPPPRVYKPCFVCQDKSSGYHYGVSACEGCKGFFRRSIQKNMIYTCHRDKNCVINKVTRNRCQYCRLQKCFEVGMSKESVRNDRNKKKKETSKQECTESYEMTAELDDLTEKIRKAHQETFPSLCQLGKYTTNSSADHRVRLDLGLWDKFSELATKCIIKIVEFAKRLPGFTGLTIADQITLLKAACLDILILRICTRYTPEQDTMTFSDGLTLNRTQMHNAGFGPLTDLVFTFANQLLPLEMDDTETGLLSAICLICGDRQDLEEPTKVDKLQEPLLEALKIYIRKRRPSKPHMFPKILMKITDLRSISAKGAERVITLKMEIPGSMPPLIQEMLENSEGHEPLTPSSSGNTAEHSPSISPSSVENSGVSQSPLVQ

[8] = target: T5, Retinoic acid receptor gamma (Homo sapiens, UniProt P13631); assay: Inhibition of [3H]-ATRA binding to baculovirus expressed Retinoic acid receptor RAR gamma
T5 sequence (P13631 whole entry): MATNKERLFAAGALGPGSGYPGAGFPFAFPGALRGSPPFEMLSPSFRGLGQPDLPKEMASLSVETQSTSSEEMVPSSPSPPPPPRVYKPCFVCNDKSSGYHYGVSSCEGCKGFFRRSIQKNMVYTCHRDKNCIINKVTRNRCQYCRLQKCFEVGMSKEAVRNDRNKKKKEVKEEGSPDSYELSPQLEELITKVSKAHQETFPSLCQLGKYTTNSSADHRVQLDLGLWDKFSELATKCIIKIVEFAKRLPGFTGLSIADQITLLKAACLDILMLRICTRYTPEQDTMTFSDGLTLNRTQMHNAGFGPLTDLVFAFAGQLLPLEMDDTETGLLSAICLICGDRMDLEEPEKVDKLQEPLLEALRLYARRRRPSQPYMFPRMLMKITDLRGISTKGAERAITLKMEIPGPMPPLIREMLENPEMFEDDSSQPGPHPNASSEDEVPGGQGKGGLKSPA

[9] = target: T6, Retinoic acid receptor beta (Homo sapiens, UniProt P10826); assay: Inhibition of [3H]ATRA binding to baculovirus expressed Retinoic acid receptor RAR beta
T6 sequence (P10826 whole entry): T4 sequence (whole entry)

[10] = target: T7, Retinoic acid receptor RXR-beta (Homo sapiens) (UniProt P28702); assay: Percent transcriptional activation relative to ATRA in CV-1 cells expressing Retinoid X receptor RXR beta; type: functional, cell-based
T7 sequence (whole entry): T1 sequence (P28702 whole entry)

[11] = target: T8, Retinoic acid receptor alpha (Homo sapiens, UniProt P10276); assay: Inhibition of [3H]ATRA binding to baculovirus expressed Retinoic acid receptor RAR alpha
T8 sequence (P10276 whole entry): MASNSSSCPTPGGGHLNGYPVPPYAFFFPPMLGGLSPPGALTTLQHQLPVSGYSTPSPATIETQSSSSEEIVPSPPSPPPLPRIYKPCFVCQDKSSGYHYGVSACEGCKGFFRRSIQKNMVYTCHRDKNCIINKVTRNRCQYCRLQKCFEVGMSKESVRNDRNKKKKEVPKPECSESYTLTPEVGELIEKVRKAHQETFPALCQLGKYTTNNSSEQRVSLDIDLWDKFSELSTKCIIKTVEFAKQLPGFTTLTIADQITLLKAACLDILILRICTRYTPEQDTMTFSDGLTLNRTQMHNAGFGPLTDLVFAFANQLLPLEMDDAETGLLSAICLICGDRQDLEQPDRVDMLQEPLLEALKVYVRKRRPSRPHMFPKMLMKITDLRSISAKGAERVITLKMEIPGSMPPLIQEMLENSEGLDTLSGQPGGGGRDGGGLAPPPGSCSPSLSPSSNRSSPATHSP

[12] = target: T9, Retinoic acid receptor gamma (Homo sapiens) (UniProt P13631); assay: Percent transcriptional activation relative to ATRA in CV-1 cells expressing Retinoic acid receptor RAR gamma; type: functional, cell-based
T9 sequence (whole entry): T5 sequence (P13631 whole entry)

[13] = target: T10, Retinoic acid receptor alpha (Homo sapiens) (UniProt P10276); assay: Percent transcriptional activation relative to ATRA in CV-1 cells expressing Retinoic acid receptor RAR alpha; type: functional, cell-based
T10 sequence (whole entry): T8 sequence (P10276 whole entry)

EC50 [1] | EC50 [2] | Ki [3] | EC50 [4] | Ki [5] | Ki [6] | Efficacy [7] | Ki [8] | Ki [9] | Efficacy [10] | Ki [11] | Efficacy [12] | Efficacy [13] | SMILES
18 nM | 7 nM | 80 nM | 6 nM | 7 nM | 15 nM |  |  |  |  |  |  |  | C=CCO/N=C(\c1ccc(C(=O)O)cc1)c1cc2c(cc1C)C(C)(C)CCC2(C)C
> 10000 nM | > 10000 nM | 467 nM | > 10000 nM | 620 nM | > 1000 nM |  |  |  |  |  |  |  | CCO/N=C(/c1ccc(C(=O)O)cc1)c1cc2c(cc1C)C(C)(C)CCC2(C)C
165 nM | 34 nM | 209 nM |  |  | 120 nM |  |  |  |  |  |  |  | Cc1cc2c(cc1/C(=N\O)c1ccc(C(=O)O)cc1)C(C)(C)CCC2(C)C
1380 nM | 1380 nM | > 1000 nM | 713 nM | > 1000 nM | > 1000 nM |  |  |  |  |  |  |  | Cc1cc2c(cc1/C(=N/OCC(=O)O)c1ccc(C(=O)O)cc1)C(C)(C)CCC2(C)C
25 nM | 11 nM | 14 nM | 12 nM | 11 nM | 14 nM |  |  |  |  |  |  |  | Cc1cc2c(cc1/C(=N/OCC#N)c1ccc(C(=O)O)cc1)C(C)(C)CCC2(C)C
377 nM | 254 nM | 238 nM | 384 nM | 394 nM | > 1000 nM |  |  |  |  |  |  |  | CO/N=C(/c1ccc(C(=O)O)cc1)c1cc2c(cc1C)C(C)(C)CCC2(C)C
32 nM | 26 nM | 57 nM | 27 nM | 12 nM | 6 nM |  |  |  |  |  |  |  | CC1(C)CCC(C)(C)c2cc(/C(=N/O)c3ccc(C(=O)O)cc3)c(Br)cc21
> 10000 nM | > 10000 nM | 445 nM | > 10000 nM | 484 nM | 623 nM |  |  |  |  |  |  |  | Cc1cc2c(cc1/C(=N/OC(C)(C)C)c1ccc(C(=O)O)cc1)C(C)(C)CCC2(C)C
12 nM | 9 nM | 42 nM | 5 nM | 26 nM | 58 nM |  |  |  |  |  |  |  | CCO/N=C(\c1ccc(C(=O)O)cc1)c1cc2c(cc1C)C(C)(C)CCC2(C)C
> 10000 nM | > 10000 nM | > 1000 nM | > 10000 nM | > 1000 nM | > 1000 nM |  |  |  |  |  |  |  | Cc1cc2c(cc1/C(=N\OC(C)(C)C)c1ccc(C(=O)O)cc1)C(C)(C)CCC2(C)C
61 nM | 306 nM | > 1000 nM | 350 nM | > 1000 nM | > 1000 nM |  |  |  |  |  |  |  | Cc1cc2c(cc1/C(=N/OCCN)c1ccc(C(=O)O)cc1)C(C)(C)CCC2(C)C
37 nM | 28 nM | 57 nM | 32 nM | 6 nM | 61 nM |  |  |  |  |  |  |  | CCCO/N=C(\c1ccc(C(=O)O)cc1)c1cc2c(cc1C)C(C)(C)CCC2(C)C
10 nM | 4 nM | 8 nM | 5 nM | 9 nM | 8 nM | 5% | > 10000 nM | > 10000 nM | 90% | > 10000 nM | 2% | 2% | CO/N=C(\c1ccc(C(=O)O)cc1)c1cc2c(cc1C)C(C)(C)CCC2(C)C
157 nM | 99 nM | 224 nM | 86 nM | 177 nM | 283 nM |  |  |  |  |  |  |  | CCCCO/N=C(\c1ccc(C(=O)O)cc1)c1cc2c(cc1C)C(C)(C)CCC2(C)C
14 nM | 7 nM | 5 nM |  |  | 5 nM | 10% |  |  | 81% |  | 13% | 6% | Cc1cc2c(cc1/C(=N/O)c1ccc(C(=O)O)cc1)C(C)(C)CCC2(C)C

SMILES | EC50 [1] | EC50 [2] | Ki [3] | EC50 [4] | Ki [5] | Ki [6] | Efficacy [7] | Ki [8] | Ki [9] | Efficacy [10] | Ki [11] | Efficacy [12] | Efficacy [13]
CC1(C)CCC(C)(C)c2cc(/C(=N/O)c3ccc(C(=O)O)cc3)ccc21 | > 10000 nM | 2890 nM | 5050 nM | 2960 nM | 4230 nM | 3360 nM |  |  |  |  |  |  | 
CO/N=C(/c1ccc(C(=O)O)cc1)c1ccc2c(c1)C(C)(C)CCC2(C)C | 207 nM | 206 nM | 558 nM | 253 nM | > 1000 nM | 363 nM |  |  |  |  |  |  | 
